In patent US9518000B2, “Bicyclo [2.2.1] acid GPR120 modulators” (BRISTOL-MYERS SQUIBB COMPANY, priority 2013, dated 2016):

Experiments:
C57BL/6 mice = assay: Acute Oral Glucose Tolerance Test; type: in vivo; conditions: oral glucose tolerance test in mice at dose of 30 mg/kg; AUC t=0-120 min compared to vehicle
Description: In Vivo GPR120 Assays 1) Acute Oral Glucose Tolerance Test
C57BL/6 mice were housed individually and fed a standard rodent chow diet. At approximately 11 weeks age, after a 5 h fast, these mice were orally treated with vehicle or test compounds 60 min before a glucose challenge (2 g/kg). Blood glucose levels were determined from tail bleeds taken at −60, 0, 15, 30, 60 and 120 min after the glucose challenge. The blood glucose excursion profile from t=0-120 min was used to calculate an area under the curve (AUC) for compound treatment. This AUC for compound treatment is compared to vehicle treatment.

human GPR120 = human GPR120 (Homo sapiens (Human), UniProt Q5NUL3); assay: GPR120 pERK AlphaScreen SureFire Assay (human GPR120 pERK assay); type: cell-based; conditions: CHOA12 or CHO-K1 cells stably transfected with the short form of human GPR120 receptor; phosphorylated ERK; read-out: EC50 values measured in the human GPR120 pERK assay
Summary of the method: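 CHO cells (CHOA12 or CHO-K1) stably expressing short-form human GPR120 were serum-starved for 2 h, then exposed to compound for 7 min at 37 °C over an 11-point range of 33.33 μM–0.56 nM final. ERK phosphorylation was read by AlphaScreen SureFire and normalised to DMSO and to 50 μM linolenic acid. EC50 was derived from a 4-parameter logistic fit.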

Chain of human GPR120 (Q5NUL3 whole entry): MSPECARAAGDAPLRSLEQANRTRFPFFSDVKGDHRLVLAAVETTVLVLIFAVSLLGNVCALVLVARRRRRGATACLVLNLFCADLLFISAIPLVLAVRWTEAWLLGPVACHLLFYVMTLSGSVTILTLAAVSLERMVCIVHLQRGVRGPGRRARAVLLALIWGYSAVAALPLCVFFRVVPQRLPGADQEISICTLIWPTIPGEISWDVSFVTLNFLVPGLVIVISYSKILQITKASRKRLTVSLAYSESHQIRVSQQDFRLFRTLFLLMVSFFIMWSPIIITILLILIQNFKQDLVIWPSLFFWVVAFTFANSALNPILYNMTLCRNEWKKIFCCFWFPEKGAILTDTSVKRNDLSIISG

Row | Compound | reduced glucose AUC levels (C57BL/6 mice) [%] | EC50 (human GPR120) [nM]
1 | O=C(O)COCC12CCC(OCc3cc(F)cc(Oc4ccccc4)c3)(CC1)C2 [Example 73, 2-((4-(3-fluoro-5-phenoxybenzyloxy)bicyclo [2.2.1]heptan-1-yl)methoxy) acetic acid] | 21 | 1620
2 | O=C(O)[C@H]1C[C@@H]1CC12CCC(OCc3cc(F)cc(Oc4ccccc4)c3)(CC1)C2 (single isomer, unassigned) [Example 92] | 25 | 600
3 | Cc1cc(COC23CCC(CCCC(=O)O)(CC2)C3)ccc1F [Example 13, 4-(4-(4-fluoro-3-methylbenzyl-oxy)bicyclo [2.2.1]heptan-1-yl)butanoic acid] |  | 7670
